We go through 8 molecules from US20240124432A1, “HERBICIDAL COMPOUNDS” (SYNGENTA CROP PROTECTION AG, priority 2020, published 2024).

SMILES strings stand for the structures.

Common to all, as to format: in vivo
For test [1], the system named is EPHHL. Put plainly: Post-emergence biological efficacy. To be noted: Euphorbia heterophylla, 312 h, evaluated after 13 days, read-out: damage to plant (100=total damage to plant; 0=no damage to plant). A digest of the protocol: (§1)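 Pot-grown plants were raised 14 days in a glasshouse (24/19 °C day/night, 16 h light), then sprayed post-emergence with an aqueous dilution of a 50 g/l IF50 formulation stock in 0.2% Genapol XO80. They were kept at 24/18 °C, 15 h light, 50% humidity, and visually scored for damage after 13 days (0 = none, 100 = total).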

For test [2], the system named is IPOHE. The test is described as follows: Post-emergence biological efficacy. The following applies: Ipomoea hederacea, 312 h, evaluated after 13 days, read-out: damage to plant (100=total damage to plant; 0=no damage to plant). An outline of the steps:
as §1

Test [3] concerns SETFA. The test is described as follows: Post-emergence biological efficacy. The following applies: Setaria faberi, 312 h, evaluated after 13 days, read-out: damage to plant (100=total damage to plant; 0=no damage to plant). A digest of the protocol:
as §1

The test system of test [4] is LOLPE. The test is described as follows: Post-emergence biological efficacy. The following applies: Lolium perenne, 312 h, evaluated after 13 days, read-out: damage to plant (100=total damage to plant; 0=no damage to plant). An outline of the steps: as §1
Test [5] has as its system ECHCG. The test is described as follows: Post-emergence biological efficacy. The following applies: Echinochloa crus-galli, 312 h, evaluated after 13 days, read-out: damage to plant (100=total damage to plant; 0=no damage to plant). A digest of the protocol: as §1
The test system of test [6] is DIGSA. The test is described as follows: Post-emergence biological efficacy. To be noted: Digitaria sanguinalis, 312 h, evaluated after 13 days, read-out: damage to plant (100=total damage to plant; 0=no damage to plant). An outline of the steps:
as §1

Test [7] relates to ELEIN. Put plainly: Post-emergence biological efficacy. To be noted: 312 h, evaluated after 13 days, read-out: damage to plant (100=total damage to plant; 0=no damage to plant). A digest of the protocol:
as §1

Test [8] deals with CHEAL. The test is described as follows: Post-emergence biological efficacy. To be noted: Chenopodium album, 312 h, evaluated after 13 days, read-out: damage to plant (100=total damage to plant; 0=no damage to plant). An outline of the steps: as §1
Test [9] has as its system AMAPA. Put plainly: Post-emergence biological efficacy. To be noted: Amaranthus palmeri, 312 h, evaluated after 13 days, read-out: damage to plant (100=total damage to plant; 0=no damage to plant). An outline of the steps: as §1
Test [10] has as its system EPHHL. Put plainly: Pre-emergence biological efficacy. The following applies: Euphorbia heterophylla, 312 h, evaluated after 13 days, read-out: damage to plant (100=total damage to plant; 0=no damage to plant). A digest of the protocol: (§2)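 Sow in pots → 1 d glasshouse, 24/19 °C, 16 h light → spray compound (IF50/acetone formulation, 0.2% Genapol XO80 diluent) → grow 24/18 °C, 15 h light, 50% RH, water 2×/day → score damage 0–100 at 13 d.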

The test system of test [11] is IPOHE. The test is described as follows: Pre-emergence biological efficacy. The following applies: Ipomoea hederacea, 312 h, evaluated after 13 days, read-out: damage to plant (100=total damage to plant; 0=no damage to plant). An outline of the steps:
as §2

Test [12] relates to SETFA. The test is described as follows: Pre-emergence biological efficacy. The following applies: Setaria faberi, 312 h, evaluated after 13 days, read-out: damage to plant (100=total damage to plant; 0=no damage to plant). An outline of the steps:
as §2

Test [13] relates to LOLPE. The test is described as follows: Pre-emergence biological efficacy. To be noted: Lolium perenne, 312 h, evaluated after 13 days, read-out: damage to plant (100=total damage to plant; 0=no damage to plant). An outline of the steps:
as §2

For test [14], the system named is ECHCG. Put plainly: Pre-emergence biological efficacy. To be noted: Echinochloa crus-galli, 312 h, evaluated after 13 days, read-out: damage to plant (100=total damage to plant; 0=no damage to plant). A digest of the protocol: as §2
Test [15] relates to AMAPA. The test is described as follows: Pre-emergence biological efficacy. To be noted: Amaranthus palmeri, 312 h, evaluated after 13 days, read-out: damage to plant (100=total damage to plant; 0=no damage to plant). An outline of the steps:
as §2

On to `CCOC(=O)C1(C)CC(c2cc(-c3ncc(C(C)=O)cc3Cl)c(F)cc2Cl)=NO1` (stereo not drawn) [Compound 1-631, Ethyl 3-[5-(5-acetyl-3-chloro-2-pyridyl)-2-chloro-4-fluoro-phenyl]-5-methyl-4H-isoxazole-5-carboxylate], for which the pest or weed control at 250 g/ha was 20% in test [1]; 40% in test [2]; 10% in test [3]; 0% in [4]; 40% in test [5]; 30% in test [6]. In addition, the pest or weed control at 250 g/ha in test [7] amounted to 10%; in [8], 20%; in test [9], 10%; in test [10] it was 0%; in [11], 0%; in test [12], 0%. Further, the pest or weed control at 250 g/ha in test [13], in [14] and in test [15] was 0% throughout.

With `CCOC(=O)C1(C)CC(c2cc(-c3ncccc3Cl)c(F)cc2Cl)=NO1` (stereo not drawn) [Compound 1-127, Ethyl 3-[2-chloro-5-(3-chloro-2-pyridyl)-4-fluoro-phenyl]-5-methyl-4H-isoxazole-5-carboxylate], the pest or weed control at 250 g/ha in test [1] is 80%; in [2] it was 100%; in test [3] it was 100%; in test [4], 10%; in test [5], 90%; in [6], 50%. The pest or weed control at 250 g/ha in test [7] stood at 30%; in test [8], 100%; in test [9], 100%; in test [10], 100%; in [11], 50%; in test [12], 70%. Further, the pest or weed control at 250 g/ha in test [13] worked out at 20%; in [14], 50%; in test [15], 40%.

For the molecule `CCOC(=O)C1(C)CC(c2cc(-c3ccccn3)c(F)cc2Cl)=NO1` (stereo not drawn) [Compound 1-139, Ethyl 3-[2-chloro-4-fluoro-5-(2-pyridyl)phenyl]-5-methyl-4H-isoxazole-5-carboxylate], the pest or weed control at 250 g/ha in test [1] is 10%; in test [2], 20%; in [3], 10%; in test [4], 0%; in test [5], 0%; in test [6], 0%. In addition, the pest or weed control at 250 g/ha in test [7], in [8], in [9], in test [10], in test [11] and in [12] was 0% each time. Moreover, the pest or weed control at 250 g/ha in test [13], in test [14] and in test [15] was 0% each time.

Consider `CCOC(=O)C1(C)CC(c2cc(-c3cc(C(F)(F)F)ccn3)c(F)cc2Cl)=NO1` (stereo not drawn) [Compound 1-319, Ethyl 3-[2-chloro-4-fluoro-5-[4-(trifluoromethyl)-2-pyridyl]-phenyl]-5-methyl-4H-isoxazole-5-carboxylate], for which the pest or weed control at 250 g/ha in [1] was 80%; in [2] it was 100%; in test [3], 70%; in test [4], 10%; in [5], 60%; in test [6], 80%. Also, the pest or weed control at 250 g/ha came out at 40% in [7]; 90% in test [8]; 80% in [9]; 20% in test [10]; 0% in [11]; 0% in [12]. Also, the pest or weed control at 250 g/ha in test [13] turned out to be 10%; in test [14], 30%; in test [15], 40%.

In the case of `CC1(C(=O)O)CC(c2cc(-c3ncc(C(F)(F)F)cc3Cl)c(F)cc2Cl)=NO1` (stereo not drawn) [Compound 1-101, 3-[2-chloro-5-(3-chloro-5-trifluoromethyl-2-pyridyl)-4-fluoro-phenyl]-5-methyl-4H-isoxazole-5-carboxylic acid], the pest or weed control at 250 g/ha in test [1], in test [2], in test [3], in test [4], in test [5] and in test [6] was 100% in each case. For the same molecule, the pest or weed control at 250 g/ha in test [7], in [8], in [9], in test [10], in test [11] and in test [12] was 100% throughout. In addition, the pest or weed control at 250 g/ha in [13] turned out to be 80%; in test [14] it was 100%; in test [15] it was 100%.

As for `CCOC(=O)C1(C)CC(c2cc(-c3ccnc(C(F)(F)F)c3)c(F)cc2Cl)=NO1` (stereo not drawn) [Compound 1-499, Ethyl 3-[2-chloro-4-fluoro-5-[2-(trifluoromethyl)-4-pyridyl]-phenyl]-5-methyl-4H-isoxazole-5-carboxylate], the pest or weed control at 250 g/ha in test [1] amounted to 50%; in test [2] it was 70%; in test [3], 80%; in [4] it was 0%; in [5] it was 50%; in [6], 60%. Also, the pest or weed control at 250 g/ha in test [7] was found to be 60%; in test [8], 80%; in test [9] it was 80%; in test [10], 0%; in [11], 0%; in test [12] it was 0%. Moreover, the pest or weed control at 250 g/ha in test [13] was 20%; in [14], 0%; in test [15], 20%.

For `CCOC(=O)C1(C)CC(c2cc(-c3ncc(S(C)(=O)=O)cc3Cl)c(F)cc2Cl)=NO1` (stereo not drawn) [Compound 1-643, Ethyl 3-[2-chloro-5-(3-chloro-5-methylsulfonyl-2-pyridyl)-4-fluoro-phenyl]-5-methyl-4H-isoxazole-5-carboxylate], the pest or weed control at 250 g/ha in test [1], in test [2], in test [3], in test [4], in test [5] and in [6] was 100% throughout. Also, the pest or weed control at 250 g/ha in test [7], in test [8], in [9], in test [10], in [11] and in test [12] was 100% each time. Further, the pest or weed control at 250 g/ha in test [13], in test [14] and in test [15] was 100% throughout.

`CCOC(=O)C1(C)CC(c2cc(-c3ccc(C)cc3Cl)c(F)cc2Cl)=NO1` (stereo not drawn) [Compound 1-31, Ethyl 3-[2-chloro-5-(2-chloro-4-methyl-phenyl)-4-fluoro-phenyl]-5-methyl-4H-isoxazole-5-carboxylate]: the pest or weed control at 250 g/ha in [1] stood at 80%; in test [2], 90%; in test [3], 50%; in [4], 20%; in test [5] it was 30%; in test [6], 30%. In addition, the pest or weed control at 250 g/ha was determined as 70% in [7]; 100% in test [8]; 100% in test [9]; 10% in [10]; 0% in [11]; 0% in test [12]. For the same molecule, the pest or weed control at 250 g/ha in test [13] was 0%; in test [14], 0%; in test [15] it was 30%.
